Species: Rattus norvegicus
Experiment: DrugMatrix - Regimen: Daily Repeat
Assay type: toxicity, organism-based, Sprague-Dawley
Set-up: regimen Daily Repeat, gender Male, age 6-8 weeks
Conditions: in vivo, po, route oral GAVAGE, vehicle 100 % SALINE; for ABSOLUTE BASOPHIL / ABSOLUTE EOSINOPHIL / ABSOLUTE LYMPHOCYTE / ABSOLUTE MONOCYTE / ABSOLUTE SEGMENTED NEUTROPHIL / BASOPHIL / EOSINOPHIL / ERYTHROCYTE COUNT / HEMATOCRIT / HEMOGLOBIN / LEUKOCYTE COUNT / LYMPHOCYTE / MEAN CORPUSCULAR HEMOGLOBIN / MEAN CORPUSCULAR HEMOGLOBIN CONCENTRATION / MEAN CORPUSCULAR VOLUME / MONOCYTE / NEUTROPHIL / NUCLEATED RED BLOOD CELLS / PLATELET COUNT: tissue Blood; for ALANINE AMINOTRANSFERASE / ALBUMIN / ALKALINE PHOSPHATASE / ASPARTATE AMINOTRANSFERASE / BLOOD UREA NITROGEN / CARBON DIOXIDE / CHLORIDE / CHOLESTEROL / CREATINE PHOSPHOKINASE / CREATININE / GLUCOSE / LACTATE DEHYDROGENASE / LIPASE / PHOSPHORUS / POTASSIUM / SODIUM / TOTAL BILIRUBIN / TOTAL PROTEIN / URIC ACID: tissue Plasma
[1] = 0 mg/kg, 72 h, dose level Control, time 3 day
[2] = 0 mg/kg, 120 h, dose level Control, time 5 day
[3] = 46 mg/kg, 72 h, dose level Low, time 3 day

In the case of `COc1ccc2cc(CC(=O)O)ccc2c1`, the “ABSOLUTE BASOPHIL” value [1] is reported as 0 CELLS/uL, the “ABSOLUTE EOSINOPHIL” value [1] is reported as 26.83 CELLS/uL and the “ABSOLUTE LYMPHOCYTE” value [1] is reported as 12748.5 CELLS/uL. For the same compound, the “ABSOLUTE MONOCYTE” value [1] was 140.5 CELLS/uL, the “ABSOLUTE SEGMENTED NEUTROPHIL” value [1] was 1067.5 CELLS/uL and the BASOPHIL [1] was 0%. For the same compound, the EOSINOPHIL [1] was 0.17%, the “ERYTHROCYTE COUNT” value [1] was 5.51 x10E6/uL and the HEMATOCRIT [1] was 34.75%. The HEMOGLOBIN [1] was 13.65 G/DL, the “LEUKOCYTE COUNT” value [1] was 13.98 x10E3/uL and the LYMPHOCYTE [1] was 91.17%. For the same compound, the “MEAN CORPUSCULAR HEMOGLOBIN” value [1] was 24.8 pg, the “MEAN CORPUSCULAR HEMOGLOBIN CONCENTRATION” value [1] was 39.33 G/DL and the “MEAN CORPUSCULAR VOLUME” value [1] was 63.03 fL. The MONOCYTE [1] was 1%, the NEUTROPHIL [1] was 7.67% and the “NUCLEATED RED BLOOD CELLS” value [1] was 0 /100WBC. The “PLATELET COUNT” value [1] was 1278.17 x10E3/uL, the “ALANINE AMINOTRANSFERASE” value [1] was 52.17 u/L and the ALBUMIN [1] was 4.07 G/DL. The “ALKALINE PHOSPHATASE” value [1] was 416.83 u/L, the “ASPARTATE AMINOTRANSFERASE” value [1] was 109.67 u/L and the “BLOOD UREA NITROGEN” value [1] was 16.83 mg/dL. The “CARBON DIOXIDE” value [1] was 28 mmol/L, the CHLORIDE [1] was 100.83 MEQ/L and the CHOLESTEROL [1] was 69 mg/dL. For the same compound, the “CREATINE PHOSPHOKINASE” value [1] was 1155.67 u/L, the CREATININE [1] was 0.32 mg/dL and the GLUCOSE [1] was 186.5 mg/dL. For the same compound, the “LACTATE DEHYDROGENASE” value [1] was 345.67 u/L, the LIPASE [1] was 12.17 u/L and the PHOSPHORUS [1] was 12.45 mg/dL. For the same compound, the POTASSIUM [1] was 6.85 MEQ/L, the SODIUM [1] was 141.4 MEQ/L and the “TOTAL BILIRUBIN” value [1] was 0.23 mg/dL. For the same compound, the “TOTAL PROTEIN” value [1] was 5.63 G/DL, the “URIC ACID” value [1] was 2.22 mg/dL and the “ABSOLUTE BASOPHIL” value [2] was 0 CELLS/uL. For the same compound, the “ABSOLUTE EOSINOPHIL” value [2] was 114.33 CELLS/uL, the “ABSOLUTE LYMPHOCYTE” value [2] was 11655.33 CELLS/uL and the “ABSOLUTE MONOCYTE” value [2] was 142 CELLS/uL. For the same compound, the “ABSOLUTE SEGMENTED NEUTROPHIL” value [2] was 1055 CELLS/uL, the BASOPHIL [2] was 0% and the EOSINOPHIL [2] was 0.83%. The “ERYTHROCYTE COUNT” value [2] was 5.68 x10E6/uL, the HEMATOCRIT [2] was 35.92% and the HEMOGLOBIN [2] was 14.13 G/DL. For the same compound, the “LEUKOCYTE COUNT” value [2] was 12.97 x10E3/uL, the LYMPHOCYTE [2] was 90% and the “MEAN CORPUSCULAR HEMOGLOBIN” value [2] was 24.93 pg. The “MEAN CORPUSCULAR HEMOGLOBIN CONCENTRATION” value [2] was 39.37 G/DL, the “MEAN CORPUSCULAR VOLUME” value [2] was 63.33 fL and the MONOCYTE [2] was 1.17%. The NEUTROPHIL [2] was 8%, the “NUCLEATED RED BLOOD CELLS” value [2] was 0 /100WBC and the “PLATELET COUNT” value [2] was 1234 x10E3/uL. The “ALANINE AMINOTRANSFERASE” value [2] was 43.5 u/L, the ALBUMIN [2] was 4.23 G/DL and the “ALKALINE PHOSPHATASE” value [2] was 331.5 u/L. For the same compound, the “ASPARTATE AMINOTRANSFERASE” value [2] was 80.83 u/L, the “BLOOD UREA NITROGEN” value [2] was 17.67 mg/dL and the “CARBON DIOXIDE” value [2] was 31.83 mmol/L. For the same compound, the CHLORIDE [2] was 100.83 MEQ/L, the CHOLESTEROL [2] was 69.5 mg/dL and the “CREATINE PHOSPHOKINASE” value [2] was 320 u/L. The CREATININE [2] was 0.26 mg/dL, the GLUCOSE [2] was 157.33 mg/dL and the “LACTATE DEHYDROGENASE” value [2] was 364.67 u/L. It also gave an LIPASE [2] of 9.83 u/L, a PHOSPHORUS [2] of 11.05 mg/dL and a POTASSIUM [2] of 5.83 MEQ/L. For the same compound, the SODIUM [2] was 141.07 MEQ/L, the “TOTAL BILIRUBIN” value [2] was 0.22 mg/dL and the “TOTAL PROTEIN” value [2] was 5.92 G/DL. The “URIC ACID” value [2] was 1.23 mg/dL, the “ABSOLUTE BASOPHIL” value [3] was 0 CELLS/uL and the “ABSOLUTE EOSINOPHIL” value [3] was 49.33 CELLS/uL. The “ABSOLUTE LYMPHOCYTE” value [3] was 12249.33 CELLS/uL, the “ABSOLUTE MONOCYTE” value [3] was 224.67 CELLS/uL and the “ABSOLUTE SEGMENTED NEUTROPHIL” value [3] was 1176.67 CELLS/uL. For the same compound, the BASOPHIL [3] was 0%, the EOSINOPHIL [3] was 0.33% and the “ERYTHROCYTE COUNT” value [3] was 5.54 x10E6/uL. For the same compound, the HEMATOCRIT [3] was 33.9%, the HEMOGLOBIN [3] was 13.13 G/DL and the “LEUKOCYTE COUNT” value [3] was 13.7 x10E3/uL. For the same compound, the LYMPHOCYTE [3] was 89.67%, the “MEAN CORPUSCULAR HEMOGLOBIN” value [3] was 23.73 pg and the “MEAN CORPUSCULAR HEMOGLOBIN CONCENTRATION” value [3] was 38.77 G/DL. The “MEAN CORPUSCULAR VOLUME” value [3] was 61.23 fL, the MONOCYTE [3] was 1.67% and the NEUTROPHIL [3] was 8.33%. The “NUCLEATED RED BLOOD CELLS” value [3] was 0 /100WBC, the “PLATELET COUNT” value [3] was 1182.67 x10E3/uL and the “ALANINE AMINOTRANSFERASE” value [3] was 61.33 u/L. The ALBUMIN [3] was 4.13 G/DL, the “ALKALINE PHOSPHATASE” value [3] was 328.67 u/L and the “ASPARTATE AMINOTRANSFERASE” value [3] was 85.67 u/L. For the same compound, the “BLOOD UREA NITROGEN” value [3] was 16 mg/dL, the “CARBON DIOXIDE” value [3] was 34 mmol/L and the CHLORIDE [3] was 102.33 MEQ/L. The CHOLESTEROL [3] was 75.67 mg/dL, the “CREATINE PHOSPHOKINASE” value [3] was 347.33 u/L and the CREATININE [3] was 0.4 mg/dL. For the same compound, the GLUCOSE [3] was 150.67 mg/dL, the “LACTATE DEHYDROGENASE” value [3] was 245.33 u/L and the LIPASE [3] was 9 u/L. It also gave a PHOSPHORUS [3] of 11.63 mg/dL, a POTASSIUM [3] of 6.77 MEQ/L and an SODIUM [3] of 143.43 MEQ/L. The “TOTAL BILIRUBIN” value [3] was 0.13 mg/dL, the “TOTAL PROTEIN” value [3] was 5.33 G/DL and the “URIC ACID” value [3] was 1.3 mg/dL.

From ChEMBL document CHEMBL3885881, “DrugMatrix”
